Broadly, the IC50 is the concentration needed to halve the response being measured.

This is an account of results in article PMC6316600, “Analgesic Activity of Acid-Sensing Ion Channel 3 (ASIС3) Inhibitors: Sea Anemones Peptides Ugr9-1 and APETx2 versus Low Molecular Weight Compounds” (Marine Drugs, 2018).

One series deals with ASIC3. To be noted: cited from earlier work. From the text:
An inhibition of ASIC3 was reported to be an attractive approach to producing analgesia. […] Other nonspecific substances can also influence ASIC3 activity.

The subject of a further series is acetic acid writhing. To be noted: cited from earlier work. The procedure:
ASIC3 channels play an important role in the perception and maintenance of pain signals in peripheral neurons. Several ligands with inhibitory properties were found for this receptor, each of which was able to induce analgesia in animal tests. The most well-known inhibitor APETx2 in various studies has been tested on models of acid-induced muscle pain model, CFA-induced inflammatory pain model (at doses of 0.07, 0.22 and 2.2 µM). Ugr9-1 was studied in models of CFA-induced thermal hyperalgesia and acetic acid writhing test (at doses of 0.5, 0.1, and 0.01 mg/kg). […] The nonspecific actions on other cellular targets and the changes of ASIC3 involvement in the inflammatory process induced by the high antagonists’ concentration for 2 h are suspected. We conclude that the inhibition of both components of ASIC3 currents could be beneficial but could be reversed by hormesis in high doses and during a long exposure to ...

Another series relates to mice. As to the kind of experiment: Open field test. To be noted: 1 mg/kg intramuscular, 4 h before; n = 6–7. The class given is in vivo, CD-1 mice. The procedure: An open field test was carried out on mice to estimate the possible sedative effects of compounds administration. No statistically significant changes were detected between ASIC3 antagonist-treated groups and the control animals group in 5-min observations of 12 parameters.
Figure 2 Open field experiments on mice. Administration of compounds at a 1 mg/kg dose intramuscularly was done 4 h before of the measurements. (A) Travelling distance and (B) locomotion activity presented as mean ± SEM for 5-min recording period (n = 6–7).
Adult male CD-1 mice (Animal Breeding Facility Branch of Shemyakin-Ovchinnikov Institute of Bioorganic Chemistry, Russian Academy of Sciences, Pushchino, Russia) weighing 20–25 g were used. Animals that originally passed clinical examination that confirmed no deviations in health were divided into groups (at least eight male mice per group) using the principle of randomization. The average body weight of animals in each group was not statistically different between groups. Animals were housed at room temperature (23 ± 2 °C) and subjected to a 12-h light-dark cycle with food and water available ad libitum. All experiments were performed after receiving approval from the Animal Care and Use Committee of the Branch of the Institute of Bioorganic Chemistry, Russian Academy of Sciences (IBCh RAS) (Pushchino, Russia Federation). The samples were administered intramuscularly 2 h before testing (4 h in the open field test). The initial dose of 1 mg/kg was investigated for all samples, which was further reduced 5, 50, and 500 times for peptides.
In the locomotion measurements, exploration and anxiety were evaluated in the motor activity test on a computerized TSE Multi Conditioning System (TSE Systems GmbH, Bad Homburg, Germany). Four hours after the administration of the sample, the measurement was made, which lasted for 3 min. […]
The data significance in animal tests was determined by an analysis of variance followed by a Tukey’s test. […]

Another series relates to animal models of pain. To be noted: cited from earlier work.
A further series addresses T1, human ASIC3 (Homo sapiens, UniProt Q9UHC3).
T1 construct: host or cells: Xenopus laevis oocytes (cRNA injection)
T1 sequence (Q9UHC3 1-531): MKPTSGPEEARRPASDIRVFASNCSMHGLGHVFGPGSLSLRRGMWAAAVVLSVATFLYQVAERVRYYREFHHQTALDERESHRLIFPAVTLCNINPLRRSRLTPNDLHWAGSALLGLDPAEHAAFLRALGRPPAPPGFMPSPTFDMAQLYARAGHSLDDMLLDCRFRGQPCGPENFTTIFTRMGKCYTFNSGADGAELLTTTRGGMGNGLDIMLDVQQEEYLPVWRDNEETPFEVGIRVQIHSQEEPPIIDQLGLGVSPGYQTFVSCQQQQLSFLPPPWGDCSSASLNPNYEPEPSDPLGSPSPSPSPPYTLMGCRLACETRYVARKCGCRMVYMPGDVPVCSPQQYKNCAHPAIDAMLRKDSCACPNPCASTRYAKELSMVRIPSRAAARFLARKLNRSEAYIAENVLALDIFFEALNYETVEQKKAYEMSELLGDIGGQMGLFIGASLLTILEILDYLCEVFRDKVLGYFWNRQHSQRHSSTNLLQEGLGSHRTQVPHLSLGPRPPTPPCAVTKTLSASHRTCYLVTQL
As to the kind of experiment: Inhibition of sustained hASIC3 current, two-electrode voltage clamp, Xenopus laevis oocytes. Type of series: cell-based. Conditions: for Hill coefficient, sustained currents / IC50: hASIC3 in X. laevis oocytes, mean ± SEM (n = 4–6); for IC50: compound applied with 3.5 s pH stimulus, holding -50 mV, logistic fit, read-out: IC50, sustained currents. An excerpt:
Whole-cell currents were induced by pH drops and recorded at the holding potential −50 mV. (A) Effect of ligands on the transient component of current at conditioning pH 7.8. The control trace is shown first; (B) Effect of ligands on the sustained component at conditioning pH 7.3. The black line is the control trace, and the red line is the trace of activation in the presence of a ligand. Dose-response curves for transient (C) and sustained (D) currents’ inhibitions are shown. Data are shown as mean ± SEM (n = 4–6) and fitted with the logistic equation (solid lines).
The analysis of a sustained component of the current was carried out in a bath solution (pH 7.3) where the transient component of the current was completely desensitized by protons. The pH activation stimulus (3.5 s) was applied in the presence of the testing compound (Figure 1B).
X. laevis oocytes were removed surgically and defolliculated by collagenase (Sigma-Aldrich, Moscow, Russia). Oocytes were injected with 2.5 to 10 ng of human ASIC3 cRNA (AF057711.1). […] To induce transient and/or sustained currents, two different protocols with different conditioning pH were used. Microelectrodes were filled with a 3 M KCl solution. The working buffer solution was ND-96 titrated by NaOH to pH 7.8 or 7.3. The solution for the pH shift was constructed based on the ND-96 solution, in which 5 mM HEPES was replaced with 10 mM acetic acid (pH 4.0) or 10 mM MES (pH 5.5) in a supplementary 0.1% BSA solution. The duration of the activation pulses was 3.5 s.
The analysis of the electrophysiological data was performed using the OriginPro 8.6 programme.
(Two-electrode voltage clamp is typically applied to oocytes expressing channels or transporters.)

Bridge positions count the residues as written; N and C are the ends. Peptide text beside a SMILES is read from it.

For the compound `CC[C@H](C)[C@H](N)C(=O)N[C@@H](CO)C(=O)N[C@H](C(=O)N[C@@H](CC(=O)O)C(=O)N1CCC[C@H]1C(=O)N1CCC[C@H]1C(=O)N[C@H]1CSSC[C@@H](C(=O)NCC(=O)N[C@@H](C)C(=O)N[C@H](C(=O)O)C(C)C)NC(=O)CNC(=O)[C@H](Cc2ccc(O)cc2)NC(=O)[C@H](C)NC(=O)[C@H](CC(=O)O)NC(=O)[C@H](Cc2ccc(O)cc2)NC(=O)[C@H](C(C)C)NC(=O)[C@@H]2CSSC[C@H](NC(=O)[C@H](Cc3ccccc3)NC(=O)[C@H](CCCNC(=N)N)NC1=O)C(=O)N[C@@H](Cc1ccc(O)cc1)C(=O)N[C@@H](Cc1c[nH]cn1)C(=O)N[C@@H](CCCNC(=N)N)C(=O)N[C@@H](CC(=O)O)C(=O)NCC(=O)N[C@@H](CO)C(=O)NCC(=O)N[C@@H](CC(N)=O)C(=O)N2)[C@@H](C)CC` [Ugr9-1] (H-ISIDPPCRFCYHRDGSGNCVYDAYGCGAV-OH; disulfide 7-26, 10-19; N-terminus and C-terminus assumed), in the series with ASIC3, the “Inhibition of ASIC3 current components” value was “inhibit both components of the ASIC3 current”. Further, in the series on acetic acid writhing (intravenous, 30 min before testing), the “Efficacy in acetic acid writhing test” value is on record as ~ 50%. Moreover, in the series with mice, the “Travelled distance, time spent freezing, distance in the central area versus control” value is on record as “each of these differences was nonsignificant”. Also, the Analgesic effect result with animal models of pain (0.1–0.5 mg/kg) is on record as “significant analgesic effect”. Further, on human ASIC3, the “Rank of potency, sustained component inhibition” value is “Ugr9-1 > sevanol > diclofenac”. On human ASIC3 (conditioning pH 7.3), the “Inhibition of sustained current (in words)” value (from here on “Inhibition … (in words)”) is “decreased transient and sustained components of the current”; the “Hill coefficient, sustained currents” value was 1.74 ± 0.51. For the same compound, on human ASIC3 (pH 7.3, read-out: Inhibition of sustained current amplitude at saturation concentration), the inhibition at 50 µM was roughly 50%.

As to `O=C(O)Cc1ccccc1Nc1c(Cl)cccc1Cl` [diclofenac, reference compound], the “Inhibition of ASIC3 / ASICs currents” value with ASIC3 (sensory neurons and heterologous-expressed ASIC3) was “inhibit ASICs currents directly on sensory neurons and heterologous-expressed ASIC3 channels”. Moreover, in the series with acetic acid writhing (20 mg/kg i.p.), the “Effect on acetic acid-induced writhing” value was “inhibited acetic acid-induced writhing”. The “Rank of potency, sustained component inhibition” value on human ASIC3 is recorded as “Ugr9-1 > sevanol > diclofenac”. Also, the inhibition at 3000 µM on human ASIC3 (about 3 mM, conditioning pH 7.3, read-out: Inhibition of sustained current amplitude at saturation concentration) was roughly 50%. Also, at human ASIC3 (conditioning pH 7.3), the “Inhibition … (in words)” value is “significantly weaker in their inhibitory potency when compared to peptide toxin Ugr9-1” and the half-inhibitory concentration (IC50) was 856 ± 106 µM.

As to `O=C(O)C[C@H](C(=O)O)[C@@H](OC(=O)C1=Cc2cc(O)c(O)cc2[C@@H](c2ccc(O)c(O)c2)[C@@H]1C(=O)O[C@@H](C(=O)O)[C@H](CC(=O)O)C(=O)O)C(=O)O` [sevanol], the “Inhibition of transient and sustained ASIC3 currents” value with ASIC3 was “inhibited the amplitude of transient and sustained ASIC3 currents”. Moreover, the “Travelled distance, time spent freezing, distance in the central area versus control” value in the series on mice is “each of these differences was nonsignificant”. In addition, the “Analgesic and anti-inflammatory effect” value with animal models of pain (mice, 1–10 mg/kg) was “pronounced analgesic and anti-inflammatory activity”. The “Rank of potency, sustained component inhibition” value on human ASIC3 is reported as “Ugr9-1 > sevanol > diclofenac”. Further, the “Inhibition of sustained current amplitude at saturation concentration” value at human ASIC3 (about 3 mM, conditioning pH 7.3) is on record as “approximately 50%”. At human ASIC3 (conditioning pH 7.3), the “Inhibition … (in words)” value was “decreased transient and sustained components of the current”; the IC50 was determined as 259 ± 39 µM; the “Hill coefficient, sustained currents” value was found to be 2.4 ± 0.4. On human ASIC3 (conditioning pH 7.3, listed as Sevanol), the “Inhibition … (in words)” value is listed as “significantly weaker in their inhibitory potency when compared to peptide toxin Ugr9-1”.
